Measured values: patent US8575094B2, “Use of type-B lantibiotic-based compounds having antimicrobial activity” (Novacta Biosystems Limited, priority 2007, dated 2013)
In brackets after ≈: the same amount, converted by molar mass. Read-outs that look alike come from different tables or passages of the source.

Legend:
E. faecalis = test: microbe, parasite or virus in culture; settings: Enterococcus faecalis
Clostridium difficile = test: microbe, parasite or virus in culture; type: cell-based; settings: Clostridioides difficile
Source text: Compounds I to VII were screened against twelve clinical isolates of Clostridium difficile.
In addition, compounds L to LIII were screened against […] isolates of Clostridium difficile.

E. faecium = test: microbe, parasite or virus in culture; settings: Enterococcus faecium
[1] = tested on: Bifidobacterium longum NCTC 11818; test: microbe, parasite or virus in culture; settings: NCTC11818, read-out: Minimal Inhibitory Concentration (MIC)
[2] = tested on: Bifidobacterium adolescentis NCTC 11814; test: microbe, parasite or virus in culture; settings: NCTC11814, read-out: Minimal Inhibitory Concentration (MIC)
[3] = tested on: Bacteroides thetaiotaomicron NCTC 10582; test: microbe, parasite or virus in culture; settings: NCTC10582, read-out: Minimal Inhibitory Concentration (MIC)
C. difficile spores = test: Sporicidal activity: viable counts of C. difficile spores exposed to antibiotics; type: cell-based
Source text: An agent capable of killing, or preventing the successful germination of C. difficile spores would therefore be of considerable interest. To determine the effects of type B lantibiotics on C. difficile spores, suspensions of spores were exposed to antibiotics ([…]) and aliquots were taken at appropriate time points. The spores in each aliquot were filtered off and plated out on to Brazier's agar.

[4] = tested on: C. difficile strain VPI 10463; type: in vivo; settings: hamster, three times daily at 50 mg/kg/day, 5-day dosing period
Protocol: The in vivo efficacy of two type B Lantibiotics in the treatment of C. difficile infections was evaluated in the standard animal model for CDAD: clindamycin-induced cecitis in hamster (FIG. 3). Four groups of six animals were dosed orally with approximately 10^7 cells of C. difficile strain VPI 10463 and 24 hours later with a subcutaneous dose of 10 mg/kg clindamycin phosphate.

E. coli = test: microbe, parasite or virus in culture; settings: Escherichia coli
[5] = tested on: Bacteroides fragilis NCTC 9343; test: microbe, parasite or virus in culture; settings: NCTC9343, read-out: Minimal Inhibitory Concentration (MIC)
[6] = VRE, read-out: Minimal Inhibitory Concentration (MIC)

SMILES: CN[C@H](CC(C)C)C(=O)N[C@H]1C(=O)N[C@@H](CC(N)=O)C(=O)N[C@H]2C(=O)N[C@H]3C(=O)N[C@H](C(=O)N[C@H](C(=O)O)c4cc(O)cc(O)c4-c4cc3ccc4O)[C@H](O)c3ccc(c(Cl)c3)Oc3cc2cc(c3O[C@@H]2O[C@H](CO)[C@@H](O)[C@H](O)[C@H]2O[C@H]2C[C@](C)(N)[C@H](O)[C@H](C)O2)Oc2ccc(cc2Cl)[C@H]1O [Vancomycin]
- MIC (E. faecalis; ATCC29212, read-out: Minimal Inhibitory Concentration (MIC)): 4 µg/mL (≈ 2.76 µM)
- MIC (E. faecalis; [6]): > 64 µg/mL
- MIC (Clostridium difficile; read-out: Minimal Inhibitory Concentration (MIC), C. difficile strain 027C): 1 µg/mL (≈ 0.69 µM)
- MIC (Clostridium difficile; read-out: Minimal Inhibitory Concentration (MIC), C. difficile strain 27SM): 1 µg/mL (≈ 0.69 µM)
- MIC (Clostridium difficile; read-out: Minimal Inhibitory Concentration (MIC), C. difficile strain 19126): 1 µg/mL (≈ 0.69 µM)
- MIC (Clostridium difficile; read-out: Minimal Inhibitory Concentration (MIC), C. difficile strain 37779): 2 µg/mL (≈ 1.38 µM)
- MIC (Clostridium difficile; read-out: Minimal Inhibitory Concentration (MIC), C. difficile strain B32): 1 µg/mL (≈ 0.69 µM)
- MIC (Clostridium difficile; read-out: Minimal Inhibitory Concentration (MIC), C. difficile strain E4): 1 µg/mL (≈ 0.69 µM)
- MIC (Clostridium difficile; read-out: Minimal Inhibitory Concentration (MIC), C. difficile strain E16): 0.5 µg/mL (≈ 0.345 µM)
- MIC (Clostridium difficile; read-out: Minimal Inhibitory Concentration (MIC), C. difficile strain E101): 0.5 µg/mL (≈ 0.345 µM)
- MIC (Clostridium difficile; read-out: Minimal Inhibitory Concentration (MIC), C. difficile strain P24): 0.5 µg/mL (≈ 0.345 µM)
- MIC (Clostridium difficile; read-out: Minimal Inhibitory Concentration (MIC), C. difficile strain P49): 1 µg/mL (≈ 0.69 µM)
- MIC (Clostridium difficile; read-out: Minimal Inhibitory Concentration (MIC), C. difficile strain P59): 1 µg/mL (≈ 0.69 µM)
- MIC (Clostridium difficile; read-out: Minimal Inhibitory Concentration (MIC), C. difficile strain P62): 1 µg/mL (≈ 0.69 µM)
- MIC (E. faecium; ATCC19579, read-out: Minimal Inhibitory Concentration (MIC)): 0.5 µg/mL (≈ 0.345 µM)
- MIC (E. faecium; [6]): > 64 µg/mL
- MIC [1]: 1 to 2 µg/mL (≈ 0.69 to 1.38 µM)
- MIC [2]: 1 µg/mL (≈ 0.69 µM)
- MIC [3]: 64 µg/mL (≈ 44.2 µM)
- Effect on C. difficile spore viability / germination (C. difficile spores; […]): no significant effect on spore viability
- Viable counts of C. difficile spores (C. difficile spores; antibiotic at 100 µg/ml, time 24 h): 135
- Survival of infected animals [4]: survived for the duration of the entire 5-day dosing period
- MIC (E. coli; ATCC25922, read-out: Minimal Inhibitory Concentration (MIC)): > 64 µg/mL
- MIC (E. coli; read-out: Minimal Inhibitory Concentration (MIC)): > 64 µg/mL
- MIC [5]: 32 µg/mL (≈ 22.1 µM)
